Experimental data: article PMC7255801, “Disease-associated mutations in the human TRPM3 render the channel overactive via two distinct mechanisms” (eLife, 2020)

Target: T1, hTRPM3_1325 V990M (Homo sapiens, UniProt Q9HCF6, V1015M)
T1 construct: expressed in transfected cells; host or cells: Xenopus laevis oocytes (cRNA injection)
T1 sequence (Q9HCF6 1-1325 isoform Q9HCF6-10 V990M): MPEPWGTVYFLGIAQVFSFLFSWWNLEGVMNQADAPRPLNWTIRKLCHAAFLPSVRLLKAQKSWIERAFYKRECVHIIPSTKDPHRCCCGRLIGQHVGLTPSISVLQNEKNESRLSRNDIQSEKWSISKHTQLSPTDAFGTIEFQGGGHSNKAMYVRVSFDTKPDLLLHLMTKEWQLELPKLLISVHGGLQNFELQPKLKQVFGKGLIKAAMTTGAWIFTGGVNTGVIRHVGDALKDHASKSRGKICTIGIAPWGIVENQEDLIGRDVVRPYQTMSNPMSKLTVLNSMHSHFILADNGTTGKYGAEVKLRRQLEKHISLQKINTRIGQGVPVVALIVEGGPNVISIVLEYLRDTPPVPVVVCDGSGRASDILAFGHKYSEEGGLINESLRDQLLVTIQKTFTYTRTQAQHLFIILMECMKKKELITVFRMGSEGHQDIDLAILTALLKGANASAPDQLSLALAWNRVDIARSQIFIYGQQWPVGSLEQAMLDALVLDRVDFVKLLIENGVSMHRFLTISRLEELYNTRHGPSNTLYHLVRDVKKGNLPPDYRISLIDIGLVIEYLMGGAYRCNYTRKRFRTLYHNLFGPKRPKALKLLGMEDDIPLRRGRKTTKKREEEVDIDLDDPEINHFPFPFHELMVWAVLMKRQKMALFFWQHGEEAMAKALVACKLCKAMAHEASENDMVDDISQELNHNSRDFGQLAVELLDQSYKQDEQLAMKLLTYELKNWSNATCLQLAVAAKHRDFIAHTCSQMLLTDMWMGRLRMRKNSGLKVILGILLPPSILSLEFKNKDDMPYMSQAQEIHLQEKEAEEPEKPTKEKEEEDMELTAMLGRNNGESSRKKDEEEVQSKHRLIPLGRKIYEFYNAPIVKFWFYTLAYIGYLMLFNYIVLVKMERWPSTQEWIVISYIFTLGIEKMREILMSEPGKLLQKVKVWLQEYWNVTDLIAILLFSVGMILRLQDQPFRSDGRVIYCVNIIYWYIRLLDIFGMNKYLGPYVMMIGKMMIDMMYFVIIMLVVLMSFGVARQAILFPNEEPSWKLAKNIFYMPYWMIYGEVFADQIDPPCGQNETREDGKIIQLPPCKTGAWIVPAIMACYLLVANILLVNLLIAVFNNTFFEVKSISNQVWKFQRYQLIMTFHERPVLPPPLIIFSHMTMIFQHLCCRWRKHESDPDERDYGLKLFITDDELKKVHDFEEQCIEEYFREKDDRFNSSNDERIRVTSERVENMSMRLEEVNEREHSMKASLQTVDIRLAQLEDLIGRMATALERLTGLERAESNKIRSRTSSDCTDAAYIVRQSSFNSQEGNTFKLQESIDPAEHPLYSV
Experiment: Two electrode voltage clamp in Xenopus oocytes, V990M mutant
Type: cell-based
Settings: V990M compared with P1090Q, 50 μM, 100 and −100 mV, room temperature (20–22°C)
Experimental: Xenopus laevis oocytes were prepared as described earlier ([Badheka et al., 2015]). All animal procedures were approved by the Institutional Animal Care and Use Committee at Rutgers New Jersey Medical School. In brief, frogs were anesthetized in 0.25% ethyl 3-aminobenzoate methanesulfonate solution (MS222; Sigma-Aldrich); bags of ovaries were removed surgically from the anesthetized frogs. Individual oocytes were obtained by overnight digestion at 16°C in 0.2–0.3 mg/ml type 1A collagenase (Sigma-Aldrich), dissolved in a solution containing 82.5 mM NaCl, 2 mM KCl, 1 mM MgCl2, and […] HEPES, pH 7.4 (OR2 solution). The next day the collagenase containing solution was discarded and the oocytes were washed multiple times with OR2 solution. […]
Two electrode voltage clamp experiments were performed as described ([Badheka et al., 2015]). In brief, oocytes were placed in extracellular solution (97 mM NaCl, 2 mM KCl, 1 mM MgCl2, and […] HEPES, pH 7.4), and currents were recorded with thin-wall inner filament– containing glass pipettes (World Precision Instruments) filled with 3 M KCl in 1% agarose. Currents were measured with a ramp protocol from −100 to 100 mV once every 0.5 s with a GeneClamp 500B amplifier and analyzed with the pClamp 9.0 software (Molecular Devices). […]

Compound: CCC1(c2ccccc2)C(=O)NCNC1=O [primidone]
- Inhibition of basal current: significantly larger inhibition
